# Reference: US20200129524A1, “PERSONALIZED CONTRACEPTIVE FORMULATIONS” (Agile Therapeutics, Inc., priority 2017, published 2020)
# Values joined by “and” are separate entries in the source; they are usually repeats but may differ in a detail not shown here. Identical values can stand only once.
# What was measured:
# healthy women [1] = assay: Clinical trial of contraceptive effectiveness of a transdermal patch (% of women pregnant by weight or BMI category); format: in vivo; conditions: 120 μg/d LNG + 30 μg/d EE patch, 13 cycles (one year)
# From the text: To obtain the required data that would allow us to determine the personalized dosage of progestin required for each woman, we performed a clinical trial which is shown below as Example 1. When administered 120 micrograms per day of levonorgestrel (LNG), the number of women in each body weight category and the percent of the women in each category that became pregnant over a period of one year is shown in Table 1 and graphically depicted in FIG. 1.
# In a clinical trial, 2032 healthy women, aged 18 and over, were enrolled in 102 investigative sites in the US. It was an open label, 13 cycle trial (one year) to study the effectiveness of a transdermal patch delivering 120 μg per day of levonorgestrel (LNG) and 30 μg per day of ethinyl estradiol (EE). The treatment regimen for each cycle was three consecutive 7-day patches (21 days) followed by one patch-free week.
# The women enrolled in the different weight categories (in pounds) are shown in the second column of Table 1.
# The percentage of women that became pregnant over the 13 cycle period is shown in column 3 of Table 1. A graph of the percentage of women that became pregnant in each weight category is also graphically illustrated in FIG. 1.
# The same analysis was performed using the BMI of the women enrolled in the trial.
# healthy women [2] = assay: LNG level and required dose calculated from the trial's pregnancy rates (equations 2-4); format: in vivo; conditions: for LNG Level / Required Dose: 30 μg/day EE; for LNG Required Dose: range for pregnancy rates between 3% and 1.5%, EE 30 ug/day
# From the text: There is an important unmet need pertaining to the determination of the amount of progestin required to provide contraceptive effectiveness to all women based on their BMI or body weight. Without intending to be bound to a particular understanding of mechanism of action, this invention is premised in part on the understanding that contraceptive effectiveness is based on the principle that there is a physical reaction or binding of a drug to its receptor and that therefore drug concentration will play an important part in contraceptive effectiveness. Further, by knowing the effect of a progestin amount (drug concentration) on contraceptive effectiveness on different BMI or body weight women, we can determine the amounts needed to provide effectiveness for any woman of known BMI or body weight. Given that contraceptive hormones interact reversibly with their receptors and assuming the resultant effect is proportional to the receptors occupied, a relationship between the effect and the free concentration of drug can be written as (Goodman and Gilman's Pharmaceutical Basis of Therapeutics, 8th edition, p. 44) Effect=Maximal effect (D)/(Kd+D) (equation 1) Where D is the concentration of the circulating free drug and Kd is the dissociation constant for the drug-drug receptor complex, i.e., the ratio of the rate constants of the forward and dissociation binding reactions. The steady state concentration D of the circulating free drug in the plasma is correlated to the dosage rate, by the equation (Goodman and Gilman's Pharmaceutical Basis of Therapeutics, 8th edition, p. 21), Dosage Rate=CL×D (CL is the clearance and it is constant for any specific drug). Therefore D=Dosage rate/CL. Substituting this in equation 1 one obtains Effect=Maximal effect×Dosage rate/CL/(Kd+Dosage rate/CL) (equation 2) […] Note that when equation 3 is substituted into equation 2 the clearance CL cancels out and is not involved in the calculations. Using the above formulas and isolating for D yields this equation: D=(Kd*Effect)/(1−Effect) (equation 4) […] They represent the relative dosage compared to that of the women in the 90 to 120 pound category (i.e. those that had 1.5% pregnancy rate). […] Therefore, D=(1.827*0.973)/(0.027) (equation 5) D=67 μg/day (equation 6) Required Dose=120×120/67=215 (equation 7). We consider the maximum acceptable percent pregnancy for 100 women over a period of one year to be 3%. […] The same analysis can be performed using the BMI of the women. […] The same analysis as performed for the required dosage based on women's body weight was performed using BMI and the data are shown in Tables 4 and 5 and plotted in FIG. 4. Although it may be easier for the medical practitioner to use the body weight of the subject in the treatment process, they can also use the BMI. It is therefore another object of the invention to treat women in a personalized manner depending on their BMI.
# [3] = Free LNG circulating in plasma versus EE delivered (WO2016187269)
# Procedure: However, ethinyl estradiol binds to SHBG and in the process it releases some of the bound LNG. Therefore if more or less than about 30 μg of EE are delivered from the contraceptive formulation, the required levels shown in FIGS. 3, 3a and 3b will have to be modified accordingly. […] Therefore the levels of required LNG can be calculated for any level of accompanied EE.
# [4] = cited from earlier work
# [5] = 1.5% pregnancy rate, BMI >17.5 ≤ 22.5
# [6] = 1.5% pregnancy rate, BMI >22.5 ≤ 27.5
# [7] = 1.5% pregnancy rate, BMI >27.5 ≤ 32.5
# [8] = 1.5% pregnancy rate, BMI >32.5 ≤ 37.5
# [9] = 1.5% pregnancy rate, BMI >37.5 ≤ 42.5
# [10] = 1.5% pregnancy rate, BMI >42.5 ≤ 47.5
# [11] = 1.5% pregnancy rate, BMI >47.5 ≤ 52.5
# [12] = 1.5% pregnancy rate, weight 90 ≥ W <120 lbs
# [13] = 1.5% pregnancy rate, weight 120 ≥ W <150 lbs
# [14] = 1.5% pregnancy rate, weight 150 ≥ W <180 lbs
# [15] = 1.5% pregnancy rate, weight 180 ≥ W <210 lbs
# [16] = 1.5% pregnancy rate, weight 210 ≥ W <240 lbs
# [17] = 1.5% pregnancy rate, weight 240 ≥ W <270 lbs
# [18] = 1.5% pregnancy rate, weight 270 ≥ W lbs
# [19] = 3% pregnancy rate, BMI >17.5 ≤ 22.5
# [20] = 3% pregnancy rate, BMI >22.5 ≤ 27.5
# [21] = 3% pregnancy rate, BMI >27.5 ≤ 32.5
# [22] = 3% pregnancy rate, BMI >32.5 ≤ 37.5
# [23] = 3% pregnancy rate, BMI >37.5 ≤ 42.5
# [24] = 3% pregnancy rate, BMI >42.5 ≤ 47.5
# [25] = 3% pregnancy rate, BMI >47.5 ≤ 52.5
# [26] = 3% pregnancy rate, weight 90 ≥ W <120 lbs
# [27] = 3% pregnancy rate, weight 120 ≥ W <150 lbs
# [28] = 3% pregnancy rate, weight 150 ≥ W <180 lbs
# [29] = 3% pregnancy rate, weight 180 ≥ W <210 lbs
# [30] = 3% pregnancy rate, weight 210 ≥ W <240 lbs
# [31] = 3% pregnancy rate, weight 240 ≥ W <270 lbs
# [32] = 3% pregnancy rate, weight 270 ≥ W lbs
# [33] = for every 10 μg per day of EE delivered
smiles,measurement,setting,value
"C#C[C@]1(O)CC[C@H]2[C@@H]3CCC4=CC(=O)CC[C@@H]4[C@H]3CC[C@@]21CC [LNG, levonorgestrel]",% of pregnancies,healthy women [1]; weight category >90 but ≤ 120 pounds,1.5%
same,% of pregnancies,healthy women [1]; weight category >120 but ≤ 150 pounds,2.66%
same,LNG Level,healthy women [2]; [5],74.7 µg/day
same,Required Dose,healthy women [2]; [5],192 µg/day
same,LNG Level,healthy women [2]; [6],52.7 µg/day
same,Required Dose,healthy women [2]; [6],273 µg/day
same,LNG Level,healthy women [2]; [7],67.1 µg/day
same,Required Dose,healthy women [2]; [7],215 µg/day
same,LNG Level,healthy women [2]; [8],41.1 µg/day
same,Required Dose,healthy women [2]; [8],350 µg/day
same,LNG Level,healthy women [2]; [9],26.6 µg/day
same,Required Dose,healthy women [2]; [9],541 µg/day
same,LNG Level,healthy women [2]; [10],38.9 µg/day
same,Required Dose,healthy women [2]; [10],370 µg/day
same,LNG Level,healthy women [2]; [11],25.6 µg/day
same,Required Dose,healthy women [2]; [11],563 µg/day
same,LNG Level,healthy women [2]; [12],120.0 µg/day
same,Required Dose,healthy women [2]; [12],120 µg/day
same,LNG Level,healthy women [2]; [13],67 µg/day and 66.9 µg/day
same,Required Dose,healthy women [2]; [13],215 µg/day and 210 µg/day
same,LNG Level,healthy women [2]; [14],46.1 µg/day
same,Required Dose,healthy women [2]; [14],312 µg/day
same,LNG Level,healthy women [2]; [15],39.6 µg/day
same,Required Dose,healthy women [2]; [15],364 µg/day
same,LNG Level,healthy women [2]; [16],45.4 µg/day
same,Required Dose,healthy women [2]; [16],317 µg/day
same,LNG Level,healthy women [2]; [17],31.5 µg/day
same,Required Dose,healthy women [2]; [17],457 µg/day
same,LNG Level,healthy women [2]; [18],34.1 µg/day
same,Required Dose,healthy women [2]; [18],422 µg/day
same,LNG Level,healthy women [2]; [19],152.0 µg/day
same,Required Dose,healthy women [2]; [19],95 µg/day
same,LNG Level,healthy women [2]; [20],106.9 µg/day
same,Required Dose,healthy women [2]; [20],135 µg/day
same,LNG Level,healthy women [2]; [21],136.1 µg/day
same,Required Dose,healthy women [2]; [21],106 µg/day
same,LNG Level,healthy women [2]; [22],83.3 µg/day
same,Required Dose,healthy women [2]; [22],173 µg/day
same,LNG Level,healthy women [2]; [23],53.8 µg/day
same,Required Dose,healthy women [2]; [23],267 µg/day
same,LNG Level,healthy women [2]; [24],79 µg/day
same,Required Dose,healthy women [2]; [24],182 µg/day
same,LNG Level,healthy women [2]; [25],51.8 µg/day
same,Required Dose,healthy women [2]; [25],278 µg/day
same,LNG Level,healthy women [2]; [26],241.7 µg/day
same,Required Dose,healthy women [2]; [26],59 µg/day
same,LNG Level,healthy women [2]; [27],135.6 µg/day
same,Required Dose,healthy women [2]; [27],104 µg/day
same,LNG Level,healthy women [2]; [28],93.5 µg/day
same,Required Dose,healthy women [2]; [28],154 µg/day
same,LNG Level,healthy women [2]; [29],80.3 µg/day
same,Required Dose,healthy women [2]; [29],179 µg/day
same,LNG Level,healthy women [2]; [30],92.0 µg/day
same,Required Dose,healthy women [2]; [30],156 µg/day
same,LNG Level,healthy women [2]; [31],63.8 µg/day
same,Required Dose,healthy women [2]; [31],226 µg/day
same,LNG Level,healthy women [2]; [32],69.2 µg/day
same,Required Dose,healthy women [2]; [32],208 µg/day
same,LNG Required Dose,healthy women [2]; BMI >17.5 ≤ 22.5,95 to 192 µg/day
same,LNG Required Dose,healthy women [2]; BMI >22.5 ≤ 27.5,135 to 273 µg/day
same,LNG Required Dose,healthy women [2]; BMI >27.5 ≤ 32.5,106 to 215 µg/day
same,LNG Required Dose,healthy women [2]; BMI >32.5 ≤ 37.5,173 to 350 µg/day
same,LNG Required Dose,healthy women [2]; BMI >37.5 ≤ 42.5,267 to 541 µg/day
same,LNG Required Dose,healthy women [2]; BMI >42.5 ≤ 47.5,182 to 370 µg/day
same,LNG Required Dose,healthy women [2]; BMI >47.5 ≤ 52.5,278 to 563 µg/day
same,increase of free LNG as share of the approximate steady state level,[3]; [33],20%
same,change of free LNG in the plasma,[3]; for every one μg per day reduction or increase of EE below or above 30 μg per day,30 picograms per ml
same,increase of free LNG circulating in the plasma,[4]; [33],300 picograms per ml
same,approximate steady state level of LNG,[4]; plasma,~1500 picograms LNG per ml
